Activity calls are given as the source filed them.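 How the source made its calls: active means fitted half-maximal concentration for changing reporter fluorescence at or below a set limit; inactive means the rest.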
Target: Citrate synthase, peroxisomal (Saccharomyces cerevisiae (strain ATCC 204508 / S288c)) (UniProt P08679)
Test: CIT2-GFP expression modulators in yeast, dose response, flow cytometry, MLPCN hits (AID 2744)
Conditions: S. cerevisiae CIT2-GFP strain, 3 h; for GFP fluorescence, higher = induction: at 33 µM (top of the series); for EC50: flow cytometry fluorescence

Citrate synthase, peroxisomal (Saccharomyces cerevisiae (strain ATCC 204508 / S288c)), sequence (P08679 whole entry, looked up): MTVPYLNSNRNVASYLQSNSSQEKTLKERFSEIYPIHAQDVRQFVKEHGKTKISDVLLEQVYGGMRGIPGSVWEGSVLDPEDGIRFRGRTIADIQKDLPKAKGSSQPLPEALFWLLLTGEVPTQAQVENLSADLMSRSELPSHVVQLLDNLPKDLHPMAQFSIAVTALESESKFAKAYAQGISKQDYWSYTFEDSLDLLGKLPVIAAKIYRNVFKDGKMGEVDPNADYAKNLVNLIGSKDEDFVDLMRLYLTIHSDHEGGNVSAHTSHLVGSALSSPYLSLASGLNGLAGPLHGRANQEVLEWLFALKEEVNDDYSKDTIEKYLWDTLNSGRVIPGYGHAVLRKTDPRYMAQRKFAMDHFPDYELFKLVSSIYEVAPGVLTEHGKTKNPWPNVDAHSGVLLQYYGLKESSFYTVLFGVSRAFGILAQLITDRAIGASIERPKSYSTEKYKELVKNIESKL

Structure (SMILES) | GFP fluorescence, higher = induction | EC50 [µM]
O=C(/C=C/c1ccc(Br)cc1)NC(=S)NNC(=O)c1ccco1 | inactive | –
CC(=O)Oc1oc(-c2ccccc2)nc1C=Nc1ccc(N(C)C)cc1 | inactive | –
O=S(=O)(/N=C(\Sc1ccc(Cl)cc1)c1ccccc1)c1ccccc1 | inactive | –
Cc1ccc(C(=O)NNC(=S)NC(=O)c2ccco2)cc1 | inactive | –
O=C(CSC1=NS(=O)(=O)c2ccccc21)Nc1ccccc1 | inactive | –
CS(=O)(=O)c1nc(-c2ccccc2)cc(C(F)(F)F)n1 | inactive | –
Cc1c(Cc2ccccc2)c(NCCN(C)C)n2c(nc3ccccc32)c1C#N | inactive | –
Cc1cc(C)c(S(=O)(=O)N2CCC(C(=O)NCc3ccc(Cl)cc3Cl)CC2)c(C)c1 | inactive | –
CNC(CC(=O)c1ccc([N+](=O)[O-])cc1)C(Cl)(Cl)Cl (centres undefined) | inactive | –
O=C(Nc1nc(-c2ccccn2)cs1)c1cc2ccccc2o1 | inactive | –
CCCCNc1c2c3c(cccc3n(C)c1=O)C(=O)c1ccccc1-2 | inactive | –
COc1ccc(N2C(=O)C(Cl)=C(NCc3ccccc3)C2=O)cc1 | inactive | –
CCOC(=O)CS(=O)(=O)c1nc(-c2ccc(F)cc2)cc(C(F)(F)F)n1 | inactive | –
Cc1nn(C)c(C)c1N1C(=O)c2cccc3c(Br)ccc(c23)C1=O | inactive | –
CS(=O)(=O)c1nc(-c2cccs2)cc(C(F)(F)F)n1 | inactive | –
Cn1ncc2c(O/N=C(\N)c3ccc(C(C)(C)C)cc3)ncnc21 | inactive | –
COc1ccc(/C=C/C(=O)c2cc(Br)ccc(=O)c2O)cc1 | inactive | –
Cc1ccccc1[C@@]1(C)ON(c2ccccc2C(F)(F)F)C1=O | inactive | –
Cc1ccc(N=Nc2ccc(O)c3ncccc23)cc1 | inactive | –
CCOc1ccc(C(C)=O)cc1N1C(=O)C2C3C=CC(O3)C2C1=O (centres undefined) | inactive | –
C=CCOc1ccccc1C(=O)/C=C1/C(=O)Nc2ccccc21 | inactive | –
Cc1ccc(/C=C2\C(=O)NC(=S)N(c3ccccc3F)C2=O)s1 | inactive | –
O=C1C(Cl)=C(Nc2ccccc2O)C(=O)N1CCc1ccccc1 | inactive | –
COc1cc(/C=C2\C(=O)ON=C2c2ccccc2)cc(OC)c1OC | inactive | –

Structure (SMILES) | GFP fluorescence, higher = induction | EC50 [µM]
O=C(Nc1nnc(-c2ccc(F)cc2)o1)c1cc(Cl)sc1Cl | inactive | –
O=C(OCC(=O)N1CCN(C(=O)c2ccco2)CC1)c1cc(-c2ccc(F)cc2)nc2ccccc12 | inactive | –
COc1ccc(C(c2c(C)[nH]n(C(N)=S)c2=O)C(C#N)C#N)cc1 (centres undefined) | inactive | –
Clc1ccc(N=c2ssnc2Cl)cc1 | inactive | –
O=[N+]([O-])c1ccc(N=Nc2c(Cl)cc(O)cc2Cl)cc1 | inactive | –
O=C1ON=C(c2ccccc2)/C1=C/c1ccco1 | inactive | –
Oc1c(CN2CCCCC2)cc(Br)c2cccnc12 | inactive | –
CCOC(=O)/C(=C\c1cn(C)c2ccccc12)[N+](=O)[O-] | inactive | –
COc1ccc(N=Cc2nc(-c3ccccc3)oc2OC(=O)c2ccccc2)cc1 | inactive | –
Cc1ccc(/C=C/C(=O)c2ccccc(=O)c2O)c(C)c1 | – | 14.7
Cc1cccc(N2C(=O)C(Cl)=C(Nc3c(C)n(C)n(-c4ccccc4)c3=O)C2=O)c1C | inactive | –
O=C(Oc1ccnc2cc(Cl)ccc12)N1CCOCC1 | inactive | –
Oc1c(Br)cc(Br)cc1C=Nc1ccc2[nH]ncc2c1 | inactive | –
Cc1ccc(/C=N/Nc2ncc(Cl)cc2Cl)s1 | inactive | –
CN1C(=O)/C(=N\OC(=O)c2cccc3ccccc23)c2ccccc21 | inactive | –
COc1ccc(NC(=O)/C(Cl)=C(/Cl)S(=O)Cc2ccccc2)cn1 (centres undefined) | inactive | –
CCOC(=O)COc1ccc2ccccc2c1/C=C/[N+](=O)[O-] | inactive | –
CCC(=O)Nc1ccc(NC(=O)c2cc3ccccc3o2)c(OC)c1 | inactive | –
O=C(O)/C=C/C(=O)c1ccc2c(c1)CCc1ccccc1-2 | inactive | –
N/C(Cc1ccc(Cl)cc1)=N\OC(=O)c1cccc2ccccc12 | – | 1.35
C/C(=N\NC(=O)c1cccc(Br)c1)c1ccccn1 | inactive | –
CCc1ccc(C(=O)/C=C/c2ccc([N+](=O)[O-])o2)cc1 | inactive | –
Fc1cccc(Nc2ncnc3c2cnn3-c2ccccc2)c1 | inactive | –
COc1ccccc1NC1=C(Cl)C(=O)N(c2ccccc2)C1=O | inactive | –

Structure (SMILES) | GFP fluorescence, higher = induction | EC50 [µM]
O=C(Nc1cccc(-c2csc(Nc3ccccc3)n2)c1)c1ccccc1 | inactive | –
Cc1cc(C)nc(S/C=C/C(=O)c2ccccc2)n1 | inactive | –
Cc1ccc(C(=O)NNC(=S)NC(=O)COc2ccccc2)cc1 | inactive | –
CC1=NNC(=O)/C1=C\c1cn(-c2ccccc2)nc1-c1cccs1 | inactive | –
Cc1ccc(-c2nn(C(C)(C)C)c3ncnc(N)c23)cc1 | inactive | –
O=C1C=C(c2ccccc2)C(=O)N1Nc1ccccc1 | inactive | –
Cc1nn2c(NCc3ccccn3)c3c(nc2c1-c1ccccc1)CCC3 | inactive | –
COc1ccc(C(=O)NNC(=S)NC(=O)/C=C/c2cccs2)cc1 | inactive | –
CCc1cccc2sc(N3CCN(C(=O)c4ccc([N+](=O)[O-])o4)CC3)nc12 | inactive | –
COc1ccc(C(=O)/C=C2/C(=O)Nc3ccccc32)c(OC)c1 | inactive | –
O=S1(=O)C=C(Sc2nc3ccccc3s2)c2ccccc21 | inactive | –
COC(=O)/C(=C/c1c[nH]c2ccccc12)[N+](=O)[O-] | inactive | –
O=c1oc2cc(Oc3c([N+](=O)[O-])cc(C(F)(F)F)cc3[N+](=O)[O-])ccc2c2c1CCCC2 | inactive | –
COc1cccc(/C=C2\C(=O)N(c3cccc(C)c3)C(=O)c3ccccc32)c1 | inactive | –
O=C1C=CC(=O)N1c1ccc(Sc2ccc([N+](=O)[O-])cc2)cc1 | inactive | –
Oc1ccc(CNc2ccccc2)c2cccnc12 | inactive | –
Cc1cc(NC(=O)c2cccnc2Cl)ccc1NC(=O)c1cc2ccccc2o1 | inactive | –
Cc1cccc2c1NC(=O)/C2=C\C(=O)c1cccs1 | inactive | –
COc1ccc(/C=C2\C(=O)ON=C2c2ccccc2)cc1 | inactive | –
Nc1c(C(=O)c2cccs2)sc2nsc(SCCN3CCCCC3)c12 | inactive | –
Cc1ccc(/C=C/C(=O)c2ccc([N+](=O)[O-])o2)cc1 | inactive | –
O=C(CS(=O)c1ccccc1[N+](=O)[O-])Oc1ccc(Br)cc1 (centres undefined) | inactive | –
C=CCOc1ccc(C(=O)/C=C2/C(=O)Nc3ccccc32)cc1 | inactive | –
O=C(OCC(=O)N1CCN(C(=O)c2ccco2)CC1)c1cc(-c2cccc(Br)c2)nc2ccccc12 | inactive | –

Structure (SMILES) | GFP fluorescence, higher = induction | EC50 [µM]
COc1ccc(OC)c(S(=O)(=O)ON2C(=O)c3ccccc3C2=O)c1 | inactive | –
COc1cc(/C=C2\C(=O)ON=C2c2ccccc2)cc(Br)c1O | inactive | –
Cc1ccc(NC(=O)c2ccc(Cl)c(N3C(=O)C=CC3=O)c2)cc1 | inactive | –
COc1ccc([C@]2(C(C)C)ON(c3ccccc3C(F)(F)F)C2=O)cc1 | inactive | –
Cc1ccc2[nH]c(C)c(/C=C/c3cc[n+](C)cc3)c2c1 | inactive | –
O=C1c2ccccc2C(=O)N1OS(=O)(=O)c1ccccc1 | inactive | –
CC1=C(C)/C(=N\OS(=O)(=O)c2ccccc2)C=CC1=O | inactive | –
O=C(NC(=S)NNC(=O)c1cnccn1)c1ccc(Cl)cc1 | inactive | –
CCOC(=O)c1cc(-c2ccc(/C=C3/C(=O)NC(=O)C(C#N)=C3C)o2)ccc1Cl | inactive | –
O=C(Oc1oc(-c2ccco2)nc1C=Nc1ccc(Cl)cc1)c1ccco1 | inactive | –
Cc1ccc2c(nc3s/c(=C\c4ccc(-c5ccccc5C(=O)O)o4)c(=O)n32)c1C | inactive | –
O=S(=O)(CCN(CCS(=O)(=O)C(F)(F)F)CC1CCCO1)C(F)(F)F (centres undefined) | inactive | –
O=C(OCn1ncc(Br)c(Br)c1=O)c1ccc(F)cc1 | inactive | –
O=C1N(c2ccccc2C(F)(F)F)O[C@@]1(c1ccccc1)C1CCCC1 | inactive | –
CC(=O)NN1C(=O)/C(=C/c2ccc(Br)o2)SC1=S | inactive | –
Cc1ccc2c(c1)c(/C=C/c1cc[n+](C)cc1)c(C)n2C | inactive | –
CCC(=O)Oc1oc(-c2ccccc2)nc1C=Nc1ccccc1OC | inactive | –
O=C1/C(=C\c2ccc(O)c(O)c2)SC(=S)N1Cc1ccccc1 | inactive | –
Cc1cc(=O)n2c3c(sc2n1)C(=O)N(Cc1ccccc1)C3=O | inactive | –
CN(c1ccccc1)c1ccc(/C=c2\s/c(=C(/C#N)C(=O)C(C)(C)C)n(Cc3ccco3)c2=O)cc1 | inactive | –
O=C1C=CC(=O)N1c1ccc(OC(F)F)cc1 | inactive | –
COc1ccccc1N1C(=O)c2cccc3c(C(=O)O)ccc(c23)C1=O | inactive | –
